The melting point is the temperature, or range, at which the solid turns liquid.

Here are results for 91 molecules from a melting point compilation (Tetko et al.; mined from patent text by program, amines drawn as free bases though some values may be those of a salt).

SMILES strings stand for the structures.

Regarding `Cc1csc(N2N=C(c3ccc([N+](=O)[O-])cc3)c3cc4c(cc3CC2C)OCO4)n1` (stereo unspecified), the melting point is 188 to 189 °C. The figure for `OCC1=CC=C(COc2cc(C(F)(F)F)ccc2Cl)SS1` is 94.2 to 96 °C; for `N#CCOC(=O)c1ccc(C(c2ccccc2)(c2ccccc2)c2ccccc2)cn1` it is 173 to 175 °C; for `N#CN=C(Nc1cccnc1)NC(NC(=O)c1ccccc1)C(Cl)(Cl)Cl` (stereo unspecified) it is 133 to 135 °C.

Regarding `COCCOc1ccc(CCNC(=O)C=Cc2ccccc2)cc1S(N)(=O)=O`, the melting point was 133 °C. The figure for `CC(C)(C)OC(=O)N1CCN(c2ccc([N+](=O)[O-])cc2)CC1` is 136 to 140 °C; for `CCOC(=O)c1cnc2c(F)c(F)c(F)cc2c1Cl` it is 110 to 112 °C; for `CC(C)(C)C(O)(CNc1ccc(Cl)c(Cl)c1)Cn1cncn1` (stereo unspecified) it is 132 to 133 °C. In the case of `CCS(=O)(=O)c1ccc(COc2cccc3c2CN(C2CCC(=O)NC2=O)C3=O)cc1` (stereo unspecified), the melting point is 248 to 250 °C. In the case of `CNC(=S)NS(=O)(=O)c1cc(CCNC(=O)c2cc(Cl)ccc2OC)ccc1-c1ccc(OC)cc1` it was 185 to 188 °C; in that of `O=C1Nc2ccccc2C1CCCCN1CCN(c2ccc(F)cc2)CC1` (stereo unspecified), 113 to 115 °C. In the case of `COc1ccc(S(=O)O)cc1` it was 173 to 174 °C. In the case of `CN(C)CCCOc1ccc2c(c1)SCC(=O)N2` it was 120 to 121 °C; in that of `CCOC(=O)/C(=N\OCC=C(Cl)Cl)c1csc(N)n1`, 135 to 136 °C; in that of `COc1nc(C(=O)O)ccc1C#N`, 235 to 237 °C. The molecule `CCn1cc(C(=O)O)c(=O)cc1-c1ccc2c(c1)OCO2` displayed a melting point of 269 to 270 °C. The figure for `CCCCc1[nH]c2ccc([N+](=O)[O-])cc2c1C(=O)c1ccc(O)cc1` is 230 °C; for `CC1(C)N=C(c2ccccc2Cl)c2cc([N+](=O)[O-])ccc2N(CCO)C1=O` it is 192 to 194 °C; for `CC(C)c1nc(CCOCc2ccccc2)n(CCO)c1Sc1cc(Cl)cc(Cl)c1` it is 129 to 130 °C.

Molecule `ON=CC12CCCN(CCC1)C2` returned a melting point of 115 to 117 °C. In the case of `COc1ccc2c(c1)C(CCCN1C(=O)c3ccccc3C1=O)=CCO2` it was 78 to 80 °C.

In turn, `CCOC(=O)C(=O)c1ccc(-c2ccc(-c3ccccc3)cc2)o1` showed a melting point of 91 to 94 °C.

In the case of `c1ccc(Cc2c[nH]c3ccccc23)cc1`, the melting point was 108 to 110 °C.

The molecule `CC(=O)Nc1ccc(OCC2CO2)c(-c2nnco2)c1` (stereo unspecified) registered a melting point of 173 to 175 °C.

`CC(C)(C(=O)N1CCc2ccccc2C1)c1ccc(S(=O)(=O)/C=C/C#N)cc1` gave a melting point of 54 to 60 °C. The figure for `Cc1ccccc1Nc1nc(N(C)c2ccccc2)c2cccc(OCCO)c2n1` is 158 to 160 °C; for `O=C(Cc1ccc2ccn(C3CCN(CCc4ccccc4F)CC3)c2c1)NCCO` it is 128 to 129 °C.

Molecule `Nc1nc2ccc(C(O)C(CO)N3CCC(Cc4ccccc4)CC3)cc2s1` (stereo unspecified) displayed a melting point of 155 to 157 °C. `CCOC(=O)c1ccc(-c2cnc3c(c2)NC(=O)CN3)cc1` came in with a melting point of over 200 °C. In turn, `Cc1c(C(=O)Nc2ccc(N3CCC(N4CCOCC4)CC3)c(C#N)c2)cnn1-c1cccc(C(F)(F)F)c1` came in with a melting point of 215 to 216 °C. The figure for `CC(=O)[NH+]([O-])C[C@@H]1CN(c2ccc(N3CCOCC3)c(F)c2)C(=O)O1` (stereo partly specified) is 202 to 204 °C; for `CCC(Br)=C(CC)S(=O)(=O)CBr` it is 96 to 97 °C. In the case of `COc1ccc(-c2nc3nccnc3[nH]2)c(OC)c1` it was 210 to 215 °C; in that of `COc1ccc(C(=O)CCC(=O)N[C@@H](Cc2ccccc2)C(=O)O)cc1`, 131 to 133 °C. The figure for `COC(=O)[C@]1(C)Cc2c([nH]c3ccc(Cl)cc23)[C@@H](c2cccc(O)c2)N1` (racemic) is 240 to 241 °C. With `Cc1nc(CC#N)c2n1-c1ccc(Cl)cc1C(c1ccccc1Cl)=NC2`, the melting point is 212 to 214 °C. In the case of `O=S(=O)(Cl)c1nc2nc(OCC(F)(F)F)ccn2n1` it was 91 to 96 °C; in that of `CCC(C(=O)c1ccc(Cl)cc1)n1ncn(-c2ccc(N3CCN(C(=O)Cc4ccccc4)CC3)cc2)c1=O` (stereo unspecified), 172 °C. The figure for `O=C(NCCc1c[nH]c2ccc(C(=O)O)cc12)OCc1ccccc1` is 186 to 188 °C; for `CCOC(=O)c1ccc(/C=C(\CC)c2ccc3c(c2)C(C)(C)CCC3(C)C)cc1` it is 82 to 83 °C. The figure for `CCCc1ccc2oc(C(=O)c3ccncc3)c(C)c2c1O` is 203 to 205 °C; for `COc1ccc(CNc2ncc(Cl)cc2C(=O)O)cc1` it is 204 to 206 °C.

The molecule `CC(=O)c1nc(C)n2c1CN=C(c1ccccc1Cl)c1cc(Cl)ccc1-2` had a melting point of 234 to 236 °C. In the case of `N#CCN1CCC(=C2c3cc(F)ccc3CCn3ccnc32)CC1` it was 198 °C. In the case of `CCON1CC1C(N)=O` (stereo unspecified) it was 50 to 54 °C. The figure for `CC(C)(C)OC(=O)NCCc1cccc(OCCC2Oc3ccccc3N(Cc3cccc(Cl)c3)C2=O)c1` (stereo unspecified) is 107 to 108 °C. `COc1ccc2nc3n(c(=O)c2c1OC)CS(=O)(=O)N3`: the melting point was over 300 °C. In the case of `CCCn1nnc(NC(=O)C(c2ccccc2)c2ccccc2)n1` it was 124 to 125 °C. The figure for `COc1cccc(NC(=O)C(C)(C)C)c1C(C)=O` is under 48 °C. The figure for `Clc1ccc(N=Cc2ccccc2)cc1Cl` is 62 to 65 °C; for `CCc1c(-c2cccnn2)ssc1=S` it is 130 °C. The molecule `COc1cccc2sc(C3(c4ccc(S(N)(=O)=O)cc4)C=C(C(F)(F)F)NN3)nc12` (stereo unspecified) yielded a melting point of 276 to 278 °C. The molecule `COC(C)(CC(=O)Nc1cccc(OCc2ccccc2)c1)OC` displayed a melting point of 83 °C.

`CSc1nc(OCC(F)(F)F)c(C#N)c(N2CCc3ccccc3CC2)n1` yielded a melting point of 108 to 110 °C.

Molecule `O=C(O)c1cccc2c1CC(c1csc(-c3ccncc3)n1)C(=O)N2` (stereo unspecified) yielded a melting point of over 250 °C. The figure for `O=C(C(=O)c1cccc(C#Cc2ccccc2)c1)c1cccc(C#Cc2ccccc2)c1` is 144 to 145 °C. In turn, `CCCN([C@H]1COc2c(F)ccc(C(N)=O)c2C1)C(C)(C)C` had a melting point of 70 to 75 °C.

For the molecule `O=C1NC(=O)C(c2ccc(Br)o2)O1` (stereo unspecified), the melting point was in the range of 126 to 129 °C. The figure for `c1nc(Nc2ccc3[nH]ccc3c2)c2sc(-c3ccc(CN4CCOCC4)cc3)cc2n1` is 141 to 152 °C; for `CCOC(=O)C=C(c1ccc(I)cc1)c1ccc(I)cc1` it is 95 to 100 °C; for `O=C1Cc2ccccc2N1Nc1ccncc1` it is 221 to 224 °C. `O=C(NCCC1=CCCCC1)NCCC1=CCCCC1` yielded a melting point of 129 to 131 °C. The figure for `CC(C)c1nc(-c2ncn3c2[C@@H]2CCCN2C(=O)c2c(Cl)cccc2-3)no1` is 195 to 196 °C. The figure for `CCN(CC)C(=O)c1ccc2cc(-c3csc(N(C)S(=O)(=O)c4ccccc4)n3)c(=O)[nH]c2c1` is 200 to 202 °C; for `CC(c1ccccc1OCCCC(=O)O)N(c1cc(F)ccc1F)S(=O)(=O)c1ccc(Cl)cc1` (stereo unspecified) it is 141 to 142 °C.

Take `CCCn1c(=O)c2c(nc(/C=C/c3ccc(OC)c4ccccc34)n2C)n(CCC)c1=O`: the melting point lay within 213 to 214 °C. In the case of `CC(C)=NOCc1nc2c(N)nc3ccccc3c2s1` it was 152 to 153 °C; in that of `COc1ccc(C(C)=NOCc2ccc([N+](=O)[O-])cc2)cc1F`, 67 to 68 °C. In the case of `CCCCC[C@H]1CC[C@H](CCc2ccc(-c3ccc(Br)cc3F)cc2)CC1` it was 57.5 °C; in that of `Cc1nc(-n2cc(CNc3ccccc3)nn2)sc1C(=O)NCc1ccccc1`, 159 to 162 °C; in that of `NC(=O)c1cc(Oc2ccc3c(C(=O)Nc4cccc(C(F)(F)F)c4)cccc3c2)ccn1`, 117 to 120 °C. With `COc1cc(C(=O)Nc2ccc3c(c2)CCN(C)C3)cc(OC)c1OC`, the melting point was 234 to 235 °C. With `OCCCC(=C(c1ccccc1)c1ccc(O)cc1)c1ccccc1`, the melting point fell in the range of 157 to 163 °C. Regarding `O=c1c2cccc3cccc(c32)c2nc3cc(C(F)(F)F)ccc3n12`, the melting point lay in the range of 212 to 214 °C. In the case of `COC(=O)c1c(C)nc(C)c(C(=O)Cl)c1-c1ccccc1[N+](=O)[O-]` it was 96 to 98 °C. In the case of `Cc1nnc(-c2ccc3occ(-c4ccc(SC(F)(F)F)cc4)c3c2)o1` it was 170 to 171 °C; in that of `O=CC(=O)c1ccccc1`, 120 to 122 °C. Molecule `Cc1oc(-c2ccccc2)nc1COc1cc(COc2ncccc2CC(=O)O)on1` displayed a melting point of 129 to 130 °C. The figure for `CCOC(=O)c1cn(-c2ccc(F)cc2)c2cc(-c3cc(C)no3)ccc2c1=O` is 214 to 216 °C; for `O=Cc1ccc2c(C=O)c[nH]c2c1` it is 200 to 203 °C; for `CCCCNC(=O)COC1c2ccccc2C(=O)N1c1ccc2ccc(OC)nc2n1` (stereo unspecified) it is 170 °C. In the case of `CC(CF)(CF)C(=O)C(Br)Oc1ccc(Cl)cc1` (stereo unspecified) it was 54 to 57 °C; in that of `Cc1c(C)c2c(c(C)c1O)CCC(C#N)(C(C)C)O2` (stereo unspecified), 132 °C; in that of `CNC(=O)Nc1ccc2c(c1)C(C)(N)c1c-2[nH]c(=O)c2nccn12` (stereo unspecified), 200 °C. The figure for `CCC(=O)NCC[C@@H]1CCc2cc(O)c3c(c21)CCO3` is 149 to 152 °C; for `Cc1ccc(-c2c(CNC(=O)OC(C)(C)C)c(CC(C)(C)C)nc(C)c2C(=O)O)cc1` it is 216 to 217 °C. `CCN(C)C(N)=C(C#N)C#N` came in with a melting point of 140 to 141 °C. In the case of `CCCCNc1c(C(=O)OCC)c(C)nc(Cl)c1[N+](=O)[O-]` it was 33 to 35 °C; in that of `CN(C)C=CC(=O)c1cc(Cl)ccc1Cl`, 83 to 85 °C. The figure for `Cc1ccc(-c2occc2C(N)=O)cc1` is 174 °C; for `COC(=O)C(O)=CC(=O)c1cn(Cc2ccccc2)c(=O)n(Cc2ccccc2)c1=O` it is 158 to 159 °C.
